In patent publication US9504730B2, “Method of achieving a thymosin beta 4 concentration in a human patient” (REGENERX BIOPHARMACEUTICALS, INC., priority 2010, dated 2016):

Columns and labels:
[1] = Analysis of TB4 concentration data from human patients administered different dosages of thymosin beta 4; format: in vivo; parameters: key to whether first dose brings TB4 concentration that high: ~: indicates first dose does not bring TB4 concentration that high; *: indicates the most efficient treatment (as determined by total required)
Excerpt: The above formulas were developed by analysis of data from human patients who had been administered different dosages of thymosin beta 4. The frequency of dosing needed between dosages to achieve the desired concentration over time, multiplied by the dosage, gave the total drug administered in a 24-hour period. The dosage that maintained the required concentration with the lowest total drug administered was termed the most efficient. See Exampe I, below.
Based on the data collected, concentrations of TB4 in the body portion follow (especially soon after administration, with a decreasing correlation over time) a power function. An estimation of the concentration of thymosin beta 4 at 1 hour was determined using this model with an average within 10% of the experimental mean for the concentrations tested. The concentrations in the tested patients at 1 hour give an approximate range that can be efficiently maintained because the concentrations at about 1 hour are approximately 15% of the initial concentration (mean 14.7%, median 13.3%). The concentration found in human patients at 5 minutes after initial administration intravenously was defined as the initial concentration, and as Cmax, i.e. the maximum concentration achieved after administration of a dose. For the calculations made in the studies, the range of concentration which is the effective and desired dose was assumed to be 5-25% of this initial concentration (Cmax). In general, intervals between intravenous treatment times of about an hour also are the most reliably efficient in achieving and maintaining a particular concentration. Therefore, in certain embodiments, when calculating dosage using Formula I or Formula II, t may equal about 1. The concentration which is achieved with a particular dosage of thymosin beta 4 at 5 minutes (Cmax) can be found using Formula I by calculating C using the particular dosage (D) and 0.083 hours (5 minutes) as t.
Using Formula II, concentration at 1 hour is (35.6)D. In certain embodiments, the formula gives the concentration with an average error of about 10%, calculated against the experimental mean from in vivo patient data. Formulas I and II where t=1, therefore, provide a reasonable estimation of a concentration that is an acceptable and effective concentration to provide therapeutic treatment.
Treatment regimens to maintain a given dose (data summary): […]

[2] = Thymosin dosage regimens calculated with Formula II; parameters: species or system human
Excerpt: A physician or health care provider may first determine a desired concentration of thymosin beta 4 (or a desired increase in concentration of thymosin beta 4 from an existing level) in a body portion of a live human patient in need of treatment. The physician or health care provider may then calculate the dosage necessary to achieve the desired concentration using the formula: C=(A)D·t^−B (Formula I), or D=C/(A)(t^−B) (Formula IA), wherein C is the predetermined thymosin beta 4 concentration to be provided in ng/mL, D is the dosage of thymosin beta 4 administered in mg, t is the time elapsed after administration of an initial dosage of thymosin beta 4 in hours (t is treated as a constant in this equation), A is about 30 to about 38, and B is about 0.5 to about 1. According to one embodiment, the formula is C=(35.6)D·t^−0.754 (Formula II). Time, t, may be 1, and D may equal C/35.6.
A patient in need of thymosin beta 4 treatment with a concentration of 10,000 ng/mL exogenous thymosin beta 4 is administered thymosin beta 4 according to a dosage schedule wherein D and t are calculated using C=(35.6)D*t[…].
A patient in need of thymosin beta 4 treatment with a concentration of 10,000 ng/mL exogenous thymosin beta 4 with a 1-hour dosing frequency is administered D=C/(A)t^−B=10,000 ng/mL/(35.6)(1^−0.75 h)=281 mg thymosin beta 4. […]

[3] = Concentration > 1000 ng/mL in blood, infusion dosage 42 mg per dose
[4] = Concentration > 1000 ng/mL in blood, infusion dosage 140 mg per dose
[5] = Concentration > 1000 ng/mL in blood, infusion dosage 420 mg per dose
[6] = Concentration > 1000 ng/mL in blood, infusion dosage 1260 mg per dose
[7] = Concentration > 5000 ng/mL in blood, infusion dosage 42 mg per dose
[8] = Concentration > 5000 ng/mL in blood, infusion dosage 140 mg per dose
[9] = Concentration > 5000 ng/mL in blood, infusion dosage 420 mg per dose
[10] = Concentration > 5000 ng/mL in blood, infusion dosage 1260 mg per dose
[11] = Concentration > 10000 ng/mL in blood, infusion dosage 42 mg per dose
[12] = Concentration > 10000 ng/mL in blood, infusion dosage 140 mg per dose
[13] = Concentration > 10000 ng/mL in blood, infusion dosage 420 mg per dose
[14] = Concentration > 10000 ng/mL in blood, infusion dosage 1260 mg per dose
[15] = Concentration > 20000 ng/mL in blood, infusion dosage 140 mg per dose
[16] = Concentration > 20000 ng/mL in blood, infusion dosage 420 mg per dose
[17] = Concentration > 20000 ng/mL in blood, infusion dosage 1260 mg per dose
[18] = Concentration > 40000 ng/mL in blood, infusion dosage 420 mg per dose
[19] = Concentration > 40000 ng/mL in blood, infusion dosage 1260 mg per dose
[20] = human patients, intravenous, initial concentration = 5 minutes after administration (Cmax)

A of Formula II C=(A)D·t^−B (concentration at 1 hour is (35.6)D) ([1]; C in ng/mL, D in mg, t in hours, developed by analysis of human patient data): 35.6
Frequency of administration [1, 3]: 2 h
Total TB4 required for 24 hour treatment [1, 3]: 504 mg
Frequency of administration [1, 4]: 3 h
Total TB4 required for 24 hour treatment [1, 4]: 1120 mg
Frequency of administration [1, 5]: 6 h
Total TB4 required for 24 hour treatment [1, 5]: 1680 mg
Frequency of administration [1, 6]: 9 h
Total TB4 required for 24 hour treatment [1, 6]: 3360 mg
Frequency of administration [1, 7]: 0.167 h
Total TB4 required for 24 hour treatment [1, 7]: 6048 mg
Frequency of administration [1, 8]: 1 h
Total TB4 required for 24 hour treatment [1, 8]: 5040 mg
Frequency of administration [1, 9]: 2 h
Total TB4 required for 24 hour treatment [1, 9]: 5040 mg
Frequency of administration [1, 10]: 4 h
Total TB4 required for 24 hour treatment [1, 10]: 7560 mg
Frequency of administration [1, 11]: 0.083 h
Total TB4 required for 24 hour treatment [1, 11]: 12096 mg
Frequency of administration [1, 12]: 0.333 h
Total TB4 required for 24 hour treatment [1, 12]: 10080 mg
Frequency of administration [1, 13]: 1 h
Total TB4 required for 24 hour treatment [1, 13]: 10080 mg
Frequency of administration [1, 14]: 3 h
Total TB4 required for 24 hour treatment [1, 14]: 10080 mg
whether first dose brings TB4 concentration that high ([1]; Concentration > 20000 ng/mL in blood, infusion dosage 42 mg per dose): ~42
Frequency of administration [1, 15]: 0.167 h
Total TB4 required for 24 hour treatment [1, 15]: 20160 mg
Frequency of administration [1, 16]: 0.667 h
Total TB4 required for 24 hour treatment [1, 16]: 15120 mg
Frequency of administration [1, 17]: 2 h
Total TB4 required for 24 hour treatment [1, 17]: 15120 mg
whether first dose brings TB4 concentration that high ([1]; Concentration > 40000 ng/mL in blood, infusion dosage 42 mg per dose): ~42
whether first dose brings TB4 concentration that high ([1]; Concentration > 40000 ng/mL in blood, infusion dosage 140 mg per dose): ~140
Frequency of administration [1, 18]: 0.167 h
Total TB4 required for 24 hour treatment [1, 18]: 60480 mg
Frequency of administration [1, 19]: 1 h
Total TB4 required for 24 hour treatment [1, 19]: 30240 mg
average concentration at 1 hour after administration, % of Cmax (SD) ([1]; human patients, experimental data, Cmax = 5-minute concentration): 15.7%±1.32%
concentration at about 1 hour as % of the initial concentration, mean [1, 20]: 14.7%
concentration at about 1 hour as % of the initial concentration, median [1, 20]: 13.3%
concentration at about 1 hour as % of the initial concentration ([1]; human patients, intravenous, initial concentration = 5 minutes after administration (Cmax), approximate): approximately 15%
Cmax ([1]; human, in vivo, intravenous, 6 mg/kg to 18 mg/kg dosing (420 mg and 1260 mg unit dose, respectively), read-out: Cmax levels): 90 to 350 µg/mL
time t between dosage forms calculated for the desired concentration ([2]; 10,000 ng/mL exogenous thymosin beta 4, 200 mg unit dosage forms): 0.637 h
dosage D calculated for the desired concentration ([2]; 10,000 ng/mL exogenous thymosin beta 4, 1-hour dosing frequency): 281 mg
SMILES: CC[C@H](C)[C@H](NC(=O)[C@H](CCC(=O)O)NC(=O)[C@H](C)NC(=O)[C@H](CCSC)NC(=O)[C@H](CC(=O)O)NC(=O)[C@@H]1CCCN1C(=O)[C@H](CCCCN)NC(=O)[C@H](CC(=O)O)NC(=O)[C@H](CO)NC(C)=O)C(=O)N[C@@H](CCC(=O)O)C(=O)N[C@@H](CCCCN)C(=O)N[C@@H](Cc1ccccc1)C(=O)N[C@@H](CC(=O)O)C(=O)N[C@@H](CCCCN)C(=O)N[C@@H](CO)C(=O)N[C@@H](CCCCN)C(=O)N[C@@H](CC(C)C)C(=O)N[C@@H](CCCCN)C(=O)N[C@@H](CCCCN)C(=O)N[C@H](C(=O)N[C@@H](CCC(=O)O)C(=O)N[C@H](C(=O)N[C@@H](CCC(N)=O)C(=O)N[C@@H](CCC(=O)O)C(=O)N[C@@H](CCCCN)C(=O)N[C@@H](CC(N)=O)C(=O)N1CCC[C@H]1C(=O)N[C@@H](CC(C)C)C(=O)N1CCC[C@H]1C(=O)N[C@@H](CO)C(=O)N[C@@H](CCCCN)C(=O)N[C@@H](CCC(=O)O)C(=O)N[C@H](C(=O)N[C@H](C(=O)N[C@@H](CCC(=O)O)C(=O)N[C@@H](CCC(N)=O)C(=O)N[C@@H](CCC(=O)O)C(=O)N[C@@H](CCCCN)C(=O)N[C@@H](CCC(N)=O)C(=O)N[C@@H](C)C(=O)NCC(=O)N[C@@H](CCC(=O)O)C(=O)N[C@@H](CO)C(=O)O)[C@@H](C)CC)[C@@H](C)O)[C@@H](C)O)[C@@H](C)O [thymosin beta 4, Thymosin beta 4]
